We go through 16 compounds from ChEMBL document CHEMBL3045592, “Studies of O,O-dimethyl α-(2,4-dichlorophenoxyacetoxy)ethylphosphonate (HW02) as a new herbicide. 1. Synthesis and herbicidal activity of HW02 and analogues as novel inhibitors of pyruvate dehydrogenase complex” (J Agric Food Chem, 2011).

Test [1] deals with Digitaria sanguinalis. Description: Pre-emergence herbicidal activity against Digitaria sanguinalis (hairy crabgrass) assessed as growth inhibition at 450 ai g/ha after 20 days by green house test. In kind it is functional.
Test [2] concerns Digitaria sanguinalis. Description: Pre-emergence herbicidal activity against Digitaria sanguinalis (hairy crabgrass) assessed as growth inhibition at 150 ai g/ha after 20 days by green house test. In kind it is functional.
The subject of test [3] is Chenopodium album. Description: Post-emergence herbicidal activity against Chenopodium album assessed as growth inhibition at 450 ai g/ha after 20 days by green house test. In kind it is functional.
For test [4], the system named is Chenopodium album. Description: Post-emergence herbicidal activity against Chenopodium album assessed as growth inhibition at 150 ai g/ha after 20 days by green house test. In kind it is functional.
Test [5] deals with Chenopodium album. Description: Pre-emergence herbicidal activity against Chenopodium album assessed as growth inhibition at 450 ai g/ha after 20 days by green house test. In kind it is functional.
Test [6] deals with Chenopodium album. Kind of test: Pre-emergence herbicidal activity against Chenopodium album assessed as growth inhibition at 150 ai g/ha after 20 days by green house test. In kind it is functional.
Test [7] has as its system Amaranthus spinosus. Kind of test: Post-emergence herbicidal activity against Amaranthus spinosus assessed as growth inhibition at 450 ai g/ha after 20 days by green house test. In kind it is functional.
The subject of test [8] is Amaranthus spinosus. Kind of test: Post-emergence herbicidal activity against Amaranthus spinosus assessed as growth inhibition at 150 ai g/ha after 20 days by green house test. In kind it is functional.
In test [9] the test system is Abutilon theophrasti. Description: Pre-emergence herbicidal activity against Abutilon theophrasti (velvetleaf) assessed as growth inhibition at 450 ai g/ha after 20 days by green house test. In kind it is functional.
The test system of test [10] is Abutilon theophrasti. Description: Pre-emergence herbicidal activity against Abutilon theophrasti (velvetleaf) assessed as growth inhibition at 150 ai g/ha after 20 days by green house test. In kind it is functional.
Test [11] has as its system Medicago sativa. Kind of test: Post-emergence herbicidal activity against Medicago sativa (alfalfa) assessed as growth inhibition at 1500 ai g/ha after 20 days by green house test. In kind it is functional.
Test [12] relates to Amaranthus retroflexus. Description: Post-emergence herbicidal activity against Amaranthus retroflexus assessed as growth inhibition at 1500 ai g/ha after 20 days by green house test. In kind it is functional.
For test [13], the system named is Brassica rapa subsp. oleifera. Description: Post-emergence herbicidal activity against Brassica rapa subsp. oleifera Si Yue Man assessed as growth inhibition at 1500 ai g/ha after 20 days by green house test. In kind it is functional.
Test [14] concerns Digitaria sanguinalis. Kind of test: Post-emergence herbicidal activity against Digitaria sanguinalis (hairy crabgrass) assessed as growth inhibition at 1500 ai g/ha after 20 days by green house test. In kind it is functional.
For test [15], the system named is Echinochloa crus-galli. Description: Post-emergence herbicidal activity against Echinochloa crus-galli (barnyard grass) assessed as growth inhibition at 1500 ai g/ha after 20 days by green house test. In kind it is functional.
The subject of test [16] is Medicago sativa. Kind of test: Pre-emergence herbicidal activity against Medicago sativa (alfalfa) assessed as growth inhibition at 1500 ai g/ha after 20 days by green house test. In kind it is functional.
Test [17] concerns Amaranthus retroflexus. Description: Pre-emergence herbicidal activity against Amaranthus retroflexus assessed as growth inhibition at 1500 ai g/ha after 20 days by green house test. In kind it is functional.
Test [18] deals with Brassica rapa subsp. oleifera. Description: Pre-emergence herbicidal activity against Brassica rapa subsp. oleifera Si Yue Man assessed as growth inhibition at 1500 ai g/ha after 20 days by green house test. In kind it is functional.
The test system of test [19] is Digitaria sanguinalis. Description: Pre-emergence herbicidal activity against Digitaria sanguinalis (hairy crabgrass) assessed as growth inhibition at 1500 ai g/ha after 20 days by green house test. In kind it is functional.
Test [20] has as its system Echinochloa crus-galli. Kind of test: Pre-emergence herbicidal activity against Echinochloa crus-galli (barnyard grass) assessed as growth inhibition at 1500 ai g/ha after 20 days by green house test. In kind it is functional.
Test [21] has as its system Amaranthus spinosus. Description: Pre-emergence herbicidal activity against Amaranthus spinosus assessed as growth inhibition at 450 ai g/ha after 20 days by green house test. In kind it is functional.
Test [22] deals with Amaranthus spinosus. Kind of test: Pre-emergence herbicidal activity against Amaranthus spinosus assessed as growth inhibition at 150 ai g/ha after 20 days by green house test. In kind it is functional.
Test [23] deals with Abutilon theophrasti. Kind of test: Post-emergence herbicidal activity against Abutilon theophrasti (velvetleaf) assessed as growth inhibition at 450 ai g/ha after 20 days by green house test. In kind it is functional.
The test system of test [24] is Abutilon theophrasti. Description: Post-emergence herbicidal activity against Abutilon theophrasti (velvetleaf) assessed as growth inhibition at 150 ai g/ha after 20 days by green house test. In kind it is functional.
The test system of test [25] is Setaria viridis. Description: Post-emergence herbicidal activity against Setaria viridis (green foxtail) assessed as growth inhibition at 450 ai g/ha after 20 days by green house test. In kind it is functional.
The test system of test [26] is Setaria viridis. Kind of test: Post-emergence herbicidal activity against Setaria viridis (green foxtail) assessed as growth inhibition at 150 ai g/ha after 20 days by green house test. In kind it is functional.
The test system of test [27] is Setaria viridis. Description: Pre-emergence herbicidal activity against Setaria viridis (green foxtail) assessed as growth inhibition at 450 ai g/ha after 20 days by green house test. In kind it is functional.
The subject of test [28] is Setaria viridis. Kind of test: Pre-emergence herbicidal activity against Setaria viridis (green foxtail) assessed as growth inhibition at 150 ai g/ha after 20 days by green house test. In kind it is functional.
Test [29] has as its system Digitaria sanguinalis. Description: Post-emergence herbicidal activity against Digitaria sanguinalis (hairy crabgrass) assessed as growth inhibition at 450 ai g/ha after 20 days by green house test. In kind it is functional.
In test [30] the test system is Digitaria sanguinalis. Description: Post-emergence herbicidal activity against Digitaria sanguinalis (hairy crabgrass) assessed as growth inhibition at 150 ai g/ha after 20 days by green house test. In kind it is functional.
The test system of test [31] is Cucumis sativus. Description: Herbicidal activity against Cucumis sativus Jin 4 (cucumber) assessed as inhibition of root growth after 3 days. In kind it is functional, organism-based. As to conditions: Jin 4, 72 h.
The subject of test [32] is Cucumis sativus. Description: Herbicidal activity against Cucumis sativus Jin 4 (cucumber) assessed as inhibition of stem growth after 3 days. In kind it is functional, organism-based. Conditions: Jin 4, 72 h.

pIC50: −log10 of the molar value.

`COP(=O)(OC)C(C)OC(=O)COc1ccc(Cl)cc1C` (centres undefined): the “growth inhibition (GI)” value was 16% in the test on Digitaria sanguinalis [1]; 0% in the test with Digitaria sanguinalis [2]; 80% in the test on Chenopodium album [3]; 60% with Chenopodium album [4]; 0% in the test with Chenopodium album [5]; 0% in the test on Chenopodium album [6]. Also, the “growth inhibition (GI)” value in the test with Amaranthus spinosus [7] was 100%; with Amaranthus spinosus [8] it was 10%; in the test with Abutilon theophrasti [9] it was 0%; in the test with Abutilon theophrasti [10] it was 0%; in the test on Medicago sativa [11], 50%; in the test on Amaranthus retroflexus [12] it was 90%. Moreover, the “growth inhibition (GI)” value in test [13] is on record as 90%; in the test with Digitaria sanguinalis [14], 50%; in the test with Echinochloa crus-galli [15], 50%; with Medicago sativa [16], 90%; in the test on Amaranthus retroflexus [17] it was 90%; in test [18] it was 90%. Also, the “growth inhibition (GI)” value in the test on Digitaria sanguinalis [19] amounted to 90%; with Echinochloa crus-galli [20] it was 90%; in the test on Amaranthus spinosus [21] it was 30%; with Amaranthus spinosus [22] it was 0%; in the test on Abutilon theophrasti [23], 96%; in the test with Abutilon theophrasti [24] it was 82%. In addition, the “growth inhibition (GI)” value is listed as 0% in the test on Setaria viridis [25]; 0% with Setaria viridis [26]; 0% in the test with Setaria viridis [27]; 0% in the test on Setaria viridis [28]; 10% with Digitaria sanguinalis [29]; 0% with Digitaria sanguinalis [30].

For orientation: pIC50 means the negative decadic logarithm of the IC50, by convention in mol/L. As for `CCOP(=O)(OCC)C(C)OC(=O)C(C)Oc1ccc(Cl)cc1Cl` (centres undefined), in the test on Cucumis sativus [31], the pIC50 was 5.97.

Consider `CCCC(OC(=O)COc1ccc(Cl)cc1Cl)P(=O)(OC)OC` (centres undefined), for which the figures for the pIC50 in the test on Cucumis sativus [32] and in the test with Cucumis sativus [31] were 5.03 and 8.12, respectively.

In the case of `COP(=O)(OC)C(OC(=O)C(C)Oc1ccc(Cl)cc1Cl)c1ccccc1` (centres undefined), in the test with Cucumis sativus [32], the pIC50 was 4.52.

On to `CCCOP(=O)(OCCC)C(OC(=O)C(C)Oc1ccc(Cl)cc1Cl)c1ccccc1Cl` (centres undefined), for which the pIC50 was 3.79 in the test on Cucumis sativus [32] and 4.92 with Cucumis sativus [31].

As for `CCOP(=O)(OCC)C(OC(=O)COc1ccc(Cl)cc1Cl)c1ccccc1Cl` (centres undefined), the pIC50 in the test with Cucumis sativus [31] was 5.83.

For `CCCC(OC(=O)C(C)Oc1ccc(Cl)cc1Cl)P(=O)(OC)OC` (centres undefined), the pIC50 in the test with Cucumis sativus [32] is 4.86; in the test with Cucumis sativus [31], 5.53.

With `CCOP(=O)(COC(=O)COc1ccc(Cl)cc1Cl)OCC`, the pIC50 in the test with Cucumis sativus [32] is 4.87.

In the case of `CCCOP(=O)(OCCC)C(OC(=O)C(C)Oc1ccc(Cl)cc1Cl)c1ccccc1` (centres undefined), the pIC50 is 4.35 with Cucumis sativus [32] and 5.34 in the test with Cucumis sativus [31].

As for `COP(=O)(OC)C(OC(=O)COc1ccc(Cl)cc1Cl)c1cccc([N+](=O)[O-])c1` (centres undefined), the pIC50 in the test on Cucumis sativus [32] is 5.30; in the test on Cucumis sativus [31] it was 8.47. The “growth inhibition (GI)” value is on record as 90% in the test with Medicago sativa [11]; 90% in the test with Amaranthus retroflexus [12]; 90% in test [13]; “<=50%” in the test with Digitaria sanguinalis [14]; “<=50%” with Echinochloa crus-galli [15]; 90% in the test on Medicago sativa [16]. Moreover, the “growth inhibition (GI)” value with Amaranthus retroflexus [17] is reported as 90%; in test [18] it was 90%; in the test with Digitaria sanguinalis [19], “<=50%”; in the test with Echinochloa crus-galli [20], 50%.

Consider `COP(=O)(OC)C(C)OC(=O)C(C)Oc1ccc(Cl)cc1Cl` (centres undefined), for which the figures for the pIC50 in the test with Cucumis sativus [32] and in the test with Cucumis sativus [31] were 5.17 and 5.85, respectively.

With `CCCOP(=O)(OCCC)C(C)OC(=O)C(C)Oc1ccc(Cl)cc1Cl` (centres undefined), the pIC50 in the test with Cucumis sativus [32] was 4.74; in the test with Cucumis sativus [31], 5.61.

Take `CCOP(=O)(OCC)C(CC)OC(=O)COc1ccc(Cl)cc1Cl` (centres undefined): the negative logarithm of the IC50 (pIC50) is 4.59 in the test with Cucumis sativus [32] and 6.51 with Cucumis sativus [31].

As for `CCOP(=O)(OCC)C(OC(=O)COc1ccc(Cl)cc1Cl)c1ccccc1` (centres undefined), the figures for the pIC50 with Cucumis sativus [32] and in the test with Cucumis sativus [31] were 3.96 and 7.31, respectively.

As to `CCC(OC(=O)COc1ccc(Cl)cc1Cl)P(=O)(OC)OC` (centres undefined), the pIC50 is 4.85 in the test on Cucumis sativus [32] and 6.49 in the test on Cucumis sativus [31]. Besides, the “growth inhibition (GI)” value in the test on Medicago sativa [11] turned out to be 90%; with Amaranthus retroflexus [12], 90%; in test [13], 90%; in the test with Digitaria sanguinalis [14], 50%; in the test on Echinochloa crus-galli [15], 50%; with Medicago sativa [16], 90%. Further, the “growth inhibition (GI)” value with Amaranthus retroflexus [17] is listed as 90%; in test [18], 90%; with Digitaria sanguinalis [19], 75%; with Echinochloa crus-galli [20], 75%.

For `COP(=O)(OC)C(C)OC(=O)COc1ccc(Cl)cc1[N+](=O)[O-]` (centres undefined), the “growth inhibition (GI)” value (in the test on Medicago sativa [11]; in the test with Amaranthus retroflexus [12]; in test [13]; with Digitaria sanguinalis [14]; in the test on Echinochloa crus-galli [15]; in the test on Medicago sativa [16]) was “<=50%” throughout. Moreover, the “growth inhibition (GI)” value (in the test with Amaranthus retroflexus [17]; in [18]; in the test on Digitaria sanguinalis [19]; in the test on Echinochloa crus-galli [20]) was “<=50%” in each case.
